This passage reports IC50 results from US6764833B1, “Mutated Src oncogene composition and methods” (University of South Florida, priority 1999, dated 2004).

The target in the experiment is T1, pp60c-Src (Homo sapiens, UniProt P12931).
T1 construct: made in house; elsewhere 3Y1 rat fibroblasts are transfected with pcSrc531RI (pcDNA3.1)
Briefly: Competitive inhibition of enolase phosphorylation by Src kinase. The class given is biochemical. The settings on record: 1 μM acid treated enolase; read-out: K50% competitive inhibition of enolase phosphorylation. On the procedure: A library of peptides to be tested as antagonists of pp60 c-Src mutant tyrosine kinase are synthesized according to the procedure disclosed in U.S. Pat. No. 5,532,167 to Cantley, which is incorporated herein by way of reference. Accordingly a peptide Ala-Glu-Glu-Glu-Ile-Tyr-Gly-Glu-Phe-Glu-Ala-Lys-Lys-Lys-Lys is synthesized as an optimal substrate/antagonist for mutant Src tyrosine kinase. The kinetic studies are carried out as follows. Purified mutant kinase is immobilized on protein A beads and kinase reaction is performed in 20 μl of 50 mM Tris pH 7.0 buffer containing 50 mM NaCl, 10 mM MgCl2, 10 μM ATP 5 μCi [gamma-^32P]-ATP (3000 mCi/mmol, NEN) and various dilutions of the peptide. For the experiment measuring the competitive inhibition of c-Src activity by the Src motif-containing peptide, 1 μM (final concentration) acid treated enolase (trans-phosphorylation) is included. After 2.5 minutes incubation, the supernatants are spotted on phosphocellulose paper, washed four times with 75 mM phosphoric acid, and radioactivity counted in a scintillation counter. For phosphorylation of enolase, the reaction is stopped by adding SDS loading buffer and the proteins are resolved on 10% SDS-PAGE gels. The Km and Vmax are calculated using a standard computer software. The peptide is a good substrate for pp60c-Src, with Km of 2 μM and Vmax of 0.9 μM/mg/min. […]

T1 sequence (P12931 2-530): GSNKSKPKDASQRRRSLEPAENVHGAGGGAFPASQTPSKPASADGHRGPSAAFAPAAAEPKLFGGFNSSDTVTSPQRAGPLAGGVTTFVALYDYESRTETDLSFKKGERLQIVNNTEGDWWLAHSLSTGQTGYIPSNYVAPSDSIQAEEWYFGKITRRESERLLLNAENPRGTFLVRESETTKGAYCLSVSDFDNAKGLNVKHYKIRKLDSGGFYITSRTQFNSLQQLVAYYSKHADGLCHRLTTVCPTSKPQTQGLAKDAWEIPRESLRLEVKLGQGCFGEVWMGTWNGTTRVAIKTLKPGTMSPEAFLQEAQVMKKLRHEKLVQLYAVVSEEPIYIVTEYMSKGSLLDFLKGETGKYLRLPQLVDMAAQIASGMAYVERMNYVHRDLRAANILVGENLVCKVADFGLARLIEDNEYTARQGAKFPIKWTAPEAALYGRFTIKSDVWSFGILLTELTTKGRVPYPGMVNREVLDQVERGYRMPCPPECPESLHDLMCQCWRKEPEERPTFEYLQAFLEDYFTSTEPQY

With `CC[C@H](C)[C@H](NC(=O)[C@H](CCC(=O)O)NC(=O)[C@H](CCC(=O)O)NC(=O)[C@H](CCC(=O)O)NC(=O)[C@H](C)N)C(=O)N[C@@H](Cc1ccc(O)cc1)C(=O)NCC(=O)N[C@@H](CCC(=O)O)C(=O)N[C@@H](Cc1ccccc1)C(=O)N[C@@H](CCC(=O)O)C(=O)N[C@@H](C)C(=O)N[C@@H](CCCCN)C(=O)N[C@@H](CCCCN)C(=O)N[C@@H](CCCCN)C(=O)N[C@@H](CCCCN)C(=O)O` [Ala-Glu-Glu-Glu-Ile-Tyr-Gly-Glu-Phe-Glu-Ala-Lys-Lys-Lys-Lys], the IC50 amounted to 5 µM.
